Columns and labels:
[1] = Body weight in telemetrized rats; type: in vivo, rat; conditions: for effect on body weight regulation per se: antihypertensive drug alone, p.o.; for effect on tesofensine-induced reduction in body weight: co-administered with tesofensine 3.0 mg/kg p.o., Metoprolol 10, 20 mg/kg, Telmisartan 1.0, 3.0 mg/kg p.o.
Description: (§1) Five months-old male normotensive Sprague-Dawley rats (508±18 g, Harlan, Horst, The Netherlands) were housed in solid bottomed Plexiglas cages with dust free wood chippings and a cardboard tube. Holding rooms were maintained under a 12-h light/dark cycle (lights off: 1500 h). Ambient temperature was 18.0 to 22.0° C. and relative air humidity of 40 to 60%. A dim red light was the sole source of illumination during the dark period. The rats had ad libitum standard chow (Altromin 1324, 10% kcal from fat, energy density 2.85 kcal per g, Altromin GmbH, Lage, Germany) and water. All experiments were approved (permission no. 2007/561-1343) and conducted in accordance with the guidelines of the Animal Experimentation Inspectorate, Ministry of Justice, Denmark.
(§2) Upon 2-3 weeks of post-surgery recovery, the rats were transferred to fully automated food intake monitoring cages (HM-2, MBRose, Faaborg, Denmark) modified to simultaneously determine individualized food intake (by microchip, see below) and cardiovascular condition (by telemetry). For combined telemetry analysis, two receivers (RPC-1, Data Sciences International, St. Paul, Minn.) were placed in the bottom of each HM-2 food intake monitoring cages thereby fully covering the cage surface area. The modified HM-2 food intake monitoring cages were placed in a modified ventilated cabinet with lightproof doors and a light kit for cabinet-based control of light-dark cycle (Scanbur BK, Karslunde, Denmark) being similar to that in the holding rooms. Cabinet temperature was 24.0 to 26.0° C. and relative air humidity of 40 to 60%. The animals were habituated to the HM-2 food intake monitoring system for at least 5 days prior to initiation of drug treatment procedures. Prior to re-housing to the fully automated food intake monitoring cages, the rats were subcutaneuosly injected with a microchip (#402575, eVet, Haderslev, Denmark) to simultaneously identify, and in real-time mode to track feeding behavior of each individual animal throughout the entire experiment. Locomotor activity was detected by an integrated infrared sensor placed above the cage. Standard HM-2 control unit settings are reported previously in further details^7. All drugs and saline vehicle were administered 30 min before dark onset. All rats received the same treatment in each individual experiment, i.e. a parallel study design was used, and a wash-out period of at least 5 days was used between treatments to assure re-establishment of baseline levels of food intake, locomotor activity, heart rate and blood pressure. The home cage was removed from the HM-2 food intake monitoring system during the drug administration procedure and returned immediately after completion of the drug administration, whereupon automated monitoring of feeding behavior and cardiovascular parameters of each individual animal was resumed. Body weight was measured daily. Body weight and microstructural food intake analysis was performed using a data reporting software (HMView, MBRose, Faaborg, Denmark).
(§3) Data were fed into a standard graphic and statistical analysis program (GraphPad Prism v.4.03). Body weight data were calculated as absolute values (g) or daily body weight gain relative (control level=100%) to the first day of drug administration (day 0). Body weight gain and food intake were expressed as means±S.E.M of n individual animals. After acquisition of telemetry data, 12-hour means were calculated using Microsoft Excel 2007. Finally, statistical analysis and data presentation (mean±S.E.M.) was performed using GraphPad Prism v.4.03). All data were evaluated using a repeated-measure one-way ANOVA with Tukey's post-hoc test was applied to perform statistical comparisons between treatment groups. A p-value less than 0.05 was considered statistically significant.
(§4) All drugs were administered p.o. (1.0 ml/kg). […]

[2] = Locomotor activity in telemetrized rats (infrared sensor); type: in vivo, rat
Description: as §1
Upon 2-3 weeks of post-surgery recovery, the rats were transferred to fully automated food intake monitoring cages (HM-2, MBRose, Faaborg, Denmark) modified to simultaneously determine individualized food intake (by microchip, see below) and cardiovascular condition (by telemetry). For combined telemetry analysis, two receivers (RPC-1, Data Sciences International, St. Paul, Minn.) were placed in the bottom of each HM-2 food intake monitoring cages thereby fully covering the cage surface area. […] Locomotor activity was detected by an integrated infrared sensor placed above the cage. […] Body weight was measured daily. […]
as §3, with “Finally, statistical analysis and data presentation (mean±S.E.M.) was performed using GraphPad Prism v.4.03).” left out, “A p-value less than 0.05 was considered statistically significant.” left out

[3] = Telemetric monitoring of heart rate and blood pressure in rats; type: in vivo, rat
Description: as §1
The rats were implanted at Harlan laboratories, Horst, the Netherlands, with Data Science International (DSI, St. Paul, USA) Physiotel PA-C40 transmitters according to the manufactures description. In brief, the rats were anaesthetized with isoflurane, ventilated, and a laparotomy was performed under aseptic conditions. A pressure catheter was inserted and sealed in place with Vetbond (3M, St. Paul, USA) into the isolated abdominal aorta. Finally, the transmitter was placed on top of the intestines, in parallel to the long axis of the body, and secured to the abdominal wall, where after the abdominal muscle layer and skin was closed with solvable sutures. The animals were allowed full post-surgical recovery before shipment. Blood pressure (systolic and diastolic arterial blood pressure) and heart rate (pulse rate) data were collected at a sampling rate of 500 Hz using Dataquest A.R.T (v.4.3) and Ponemah software (v.5.0) (DSI, St. Paul, USA) using factory-provided calibration values for the individual transmitters and an Ambient Pressure Reference Monitor (DSI, St. Paul, USA) to ensure accurate blood pressure measurements. Data were collected continuously for 48 h and binned in 5 s intervals.
as §2, with “The home cage was removed from the HM-2 food intake monitoring system during the drug administration procedure and returned immediately after completion of the drug administration, whereupon automated monitoring of feeding behavior and cardiovascular parameters of each individual animal was resumed. Body weight was measured daily. Body weight and microstructural food intake analysis was performed using a data reporting software (HMView, MBRose, Faaborg, Denmark).” left out

[4] = Real-time feeding monitoring (food intake) in telemetrized rats; type: in vivo, rat; conditions: for effect on food intake per se: antihypertensive drug alone, p.o.; for effect on tesofensine-induced reduction in food intake: co-administered with tesofensine 3.0 mg/kg p.o., Metoprolol 10, 20 mg/kg, Telmisartan 1.0, 3.0 mg/kg p.o.
Description: as §1, §2, §3, §4

[5] = long-term treatment, corrected for placebo and diet effects; cited from earlier work
[6] = 3.0-5.0 mg/kg p.o., acute, evident for at least 48 hours, compared to vehicle-treated rats
[7] = tesofensine 1.0-5.0 mg/kg p.o., acute

With `COCCc1ccc(OCC(O)CNC(C)C)cc1` (centres unmarked) [Metoprolol, 1-(Isopropylamino)-3-[4-(2-methoxyethyl)-phenoxy]-propan-2-ol] the “effect on body weight regulation per se” value [1] was “neither antihypertensive drug exhibited an effect”, the “effect on tesofensine-induced reduction in body weight” value [1] was “did also not affect” and the “effect on tesofensine-induced locomotor activity” value ([2]; co-administered with tesofensine 3.0 mg/kg p.o., compared to tesofensine alone) was “completely prevented the locomotor activity inducing effect by tesofensine”. For the same compound, the “effect on tesofensine-induced tachycardia” value ([3]; Metoprolol 10 mg/kg and 20 mg/kg co-treatment with tesofensine 3.0 mg/kg p.o.) was “fully reversed tesofensine-induced tachycardia”, the “effect on tesofensine-evoked increase in diastolic pressure” value ([3]; Metoprolol 20 mg/kg co-treatment with tesofensine 3.0 mg/kg p.o., first light phase, 12-24 hours post-treatment) was “reversed by co-treatment with Metoprolol” and the “effect on tesofensine-induced rise in systolic blood pressure” value ([3]; Metoprolol 20 mg/kg co-treatment with tesofensine 3.0 mg/kg p.o., for up to 24 hours) was “normalization of the systolic blood pressure”. The “diastolic blood pressure, drug alone” value ([3]; Metoprolol 20 mg/kg p.o. alone, first 24 hours) was “did not produce any significant effects on diastolic blood pressure”, the “duration of heart rate lowering effect” value ([3]; Metoprolol 10 and 20 mg/kg p.o., after administration) was “up to 24 hours” and the “effect on food intake per se” value [4] was “neither antihypertensive drug exhibited an effect”. The “effect on tesofensine-induced reduction in food intake” value [4] was “did also not affect tesofensine-induced reductions in food intake”.

In the case of `CCCc1nc2c(C)cc(-c3nc4ccccc4n3C)cc2n1Cc1ccc(-c2ccccc2C(=O)O)cc1` [Telmisartan], the “effect on body weight regulation per se” value [1] is reported as “neither antihypertensive drug exhibited an effect”, the “effect on tesofensine-induced reduction in body weight” value [1] is reported as “did also not affect” and the “effect on tesofensine-induced rise in heart rate” value ([3]; Telmisartan 1.0 and 3.0 co-treatment with tesofensine 3.0 mg/kg p.o.) is reported as “did not revert the rise in heart rate”. The “heart rate and blood pressure, drug alone” value ([3]; Telmisartan alone 3.0 mg/kg p.o.) was “no effect on heart rate and blood pressure”, the “effect on Tesofensine-induced increases in diastolic and systolic blood pressure” value ([3]; Telmisartan co-treatment with tesofensine 3.0 mg/kg p.o., p>0.05 compared to Tesofensine alone) was “did not lead to a significant prevention of Tesofensine-induced hypertension” and the “heart rate compared to tesofensine alone” value ([3]; highest dose of Telmisartan (3.0 mg/kg) combined with tesofensine 3.0 mg/kg p.o.) was “significant increase in heart rate as compared to tesofensine administration alone”. For the same compound, the “effect on food intake per se” value [4] was “neither antihypertensive drug exhibited an effect” and the “effect on tesofensine-induced reduction in food intake” value [4] was “did also not affect tesofensine-induced reductions in food intake”.

For `CCOC[C@@H]1[C@@H](c2ccc(Cl)c(Cl)c2)C[C@@H]2CC[C@H]1N2C` [Tesofensine], the “weight loss in obese patients” value [5] is given as “about 10%”, the “net body weight loss (absolute)” value [1, 6] is given as 8 to 11 g and the “net body weight loss (relative)” value [1, 6] is given as 1.0-1.5%. The locomotor activity ([2]; 3.0-5.0 mg/kg p.o., acute) was “significant, albeit short-lasting, increase in locomotor activity”, the “duration of induced locomotor activity” value ([2]; first dark phase after acute dosing) was “up to 12 hours” and the systolic blood pressure ([3]; tesofensine 3.0 mg/kg and 5.0 mg/kg p.o., up to 48 hours after administration) was “dose-dependent modest increase in systolic blood pressure”. The heart rate ([3]; tesofensine 3.0 mg/kg p.o., Telmisartan combination study) was “significantly increase heart rate”, the “duration of heart rate increase” value [3, 7] was “up to 48 hours” and the heart rate [3, 7] was “dose-dependent increase in heart rate at all doses tested”. The diastolic blood pressure ([3]; tesofensine 1.0-5.0 mg/kg p.o., highest dose not significant (p=0.204)) was “trend towards a dose-dependent rise in diastolic blood pressure”, the “duration of hypophagic effect” value ([4]; 5.0 mg/kg p.o., acute) was at most 48 h and the “duration of hypophagic effect” value ([4]; 3.0-5.0 mg/kg p.o., acute) was at most 24 h. The “duration of hypophagic effect” value ([4]; all doses (1.0-5.0 mg/kg p.o.), acute) was “up to 12 hours” and the “food intake relative to the control level” value ([4]; tesofensine 5.0 mg/kg p.o., acute, 12 hours post-dosing, p<0.001) was “approximately 50%”.
